# Values quoted from earlier work as cited in patent US8329142B2, “Compounds, compositions and methods for medical imaging of Parkinson's disease” (priority 2003, dated 2012).
# Assays:
# [1] = target: T1, Aβ(1-40) (Homo sapiens, UniProt P05067); details: in vitro
# [2] = target: T1, Aβ(1-40)
# [3] = target: Aβ(1-28) (Homo sapiens, UniProt P05067); details: computer-based molecular modeling
# [4] = intra-venous (IV) and oral administration
# T1 sequence (P05067 672-711 limits assumed): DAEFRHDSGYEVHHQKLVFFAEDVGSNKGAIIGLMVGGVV
# Sequence of Aβ(1-28) (P05067 672-699): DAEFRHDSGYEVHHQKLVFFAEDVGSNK
smiles,measurement,setting,value
"[12CH3][14N+]([12CH3])([12CH3])CC[16O][31P](=[16O])([16OH])[16O]CC([16OH])C[16OH] (stereo not shown) [GPC, glycerophosphocholine]",enhancement of Aβ(1-40) aggregation,[1],over 400%
same,reduction of α-helical content of Aβ(1-40),[2],15%
same,"binding to Aβ(1-28) peptide site (pocket Lys28, Asp23, Lys16)",[3],bind specifically
same,brain penetration,[4],enters the brain
